Patent US20030190692A1, “Method for measuring the activity of the blood clotting factor XIIIA” (priority 2000, published 2003)

Legend:
[1] = system: FXIIIa; conditions: animal models; Leidy et al. 1990; cited from earlier work
[2] = target: FXIIIa (Homo sapiens, UniProt P00488); assay: biochemical
Sequence of FXIIIa (Homo sapiens, UniProt P00488) (P00488 39-732 limits assumed): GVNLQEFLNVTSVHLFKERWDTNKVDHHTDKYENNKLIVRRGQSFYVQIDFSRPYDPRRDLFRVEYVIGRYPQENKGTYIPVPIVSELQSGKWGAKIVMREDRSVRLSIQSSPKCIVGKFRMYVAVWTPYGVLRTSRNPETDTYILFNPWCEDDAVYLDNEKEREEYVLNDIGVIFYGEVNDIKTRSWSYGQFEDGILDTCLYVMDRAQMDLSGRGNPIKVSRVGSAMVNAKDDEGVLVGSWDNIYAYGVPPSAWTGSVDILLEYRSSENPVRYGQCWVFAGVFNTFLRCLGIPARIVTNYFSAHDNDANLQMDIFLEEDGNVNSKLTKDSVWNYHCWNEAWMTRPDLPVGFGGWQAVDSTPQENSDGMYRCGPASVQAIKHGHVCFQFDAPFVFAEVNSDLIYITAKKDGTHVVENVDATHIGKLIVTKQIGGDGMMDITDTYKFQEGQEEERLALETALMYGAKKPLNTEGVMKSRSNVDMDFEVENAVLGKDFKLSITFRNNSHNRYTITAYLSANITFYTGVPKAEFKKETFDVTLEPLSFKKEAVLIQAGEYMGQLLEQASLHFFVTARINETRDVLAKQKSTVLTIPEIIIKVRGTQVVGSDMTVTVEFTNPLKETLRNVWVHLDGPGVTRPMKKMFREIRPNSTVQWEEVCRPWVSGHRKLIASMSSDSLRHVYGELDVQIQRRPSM

CC(=O)CSc1n[n+]2c(C)csc2s1.[O-][Cl+3]([O-])([O-])[O-] [L722151]
Effect on thrombolysis by a plasminogen activator [1]: improve the thrombolysis

O=C(O)CI [iodoacetic acid]
IC50 [2]: 147 µM
